Laboratory results reported in patent US9802928B2 (Merck Sharp & Dohme Corp., priority 2013, dated 2017).

What was measured:
[1] = target: soluble human BACE1 catalytic domain (Homo sapiens (Human), UniProt P56817); test: BACE1 HTRF FRET Assay; assay type: biochemical; conditions: Ki calculated from IC50 using the Cheng-Prusoff equation; QSY7-APPswe-Eu substrate, pH 5.0
From the text: Na^+-Acetate pH 5.0; 1% Brij-35; Glycerol; Dimethyl Sulfoxide (DMSO); Recombinant human soluble BACE1 catalytic domain (>95% pure); APP Swedish mutant peptide substrate (QSY7-APP^swe-Eu): QSY7-[…]-Europium-amide.
A homogeneous time-resolved FRET assay can be used to determine IC50 values for inhibitors of the soluble human BACE1 catalytic domain. This assay monitors the increase of 620 nm fluorescence that resulted from BACE1 cleavage of an APPswedish APP^swe mutant peptide FRET substrate (QSY7-[…]-Europium-amide). This substrate contains an N-terminal QSY7 moiety that serves as a quencher of the C-terminal Europium fluorophore (620 nm Em). In the absence of enzyme activity, 620 nm fluorescence is low in the assay and increased linearly over 3 hours in the presence of uninhibited BACE1 enzyme Inhibition of BACE1 cleavage of the QSY7-APP^swe-Eu substrate by inhibitors is manifested as a suppression of 620 nm fluorescence.
Varying concentrations of inhibitors at 3× the final desired concentration in a volume of 10 ul are preincubated with purified human BACE1 catalytic domain (3 nM in 10 μl) for 30 minutes at 30° C. in reaction buffer containing 20 mM Na-Acetate pH 5.0, 10% glycerol, 0.1% Brij-35 and 7.5% DSMO. Reactions are initiated by addition of 10 μl of 600 nM QSY7-APP^swe-Eu substrate (200 nM final) to give a final reaction volume of 30 μl in a 384 well Nunc HTRF plate. The reactions are incubated at 30° C. for 1.5 hours. The 620 nm fluorescence is then read on a Rubystar HTRF plate reader (BMG Labtechnologies) using a 50 millisecond delay followed by a 400 millisecond acquisition time window. Inhibitor IC50 values are derived from non-linear regression analysis of concentration response curves. Ki values are then calculated from IC50 values using the Cheng-Prusoff equation using a previously determined […] of 8 μM for the QSY7-APP^swe-Eu substrate at BACE1.

[2] = target: purified human autoBACE-2 (Homo sapiens (Human), UniProt Q9Y5Z0); test: BACE-2 Assay (BACE-HTRF assay); assay type: biochemical; conditions: Ki calculated from IC50 using the Cheng-Prusoff equation; QSY7-EISEVNLDAEFC-Eu-amide substrate, pH 5.0; read-out: BACE2 Ki
Chain of purified human autoBACE-2 (Q9Y5Z0 63-473 limits assumed): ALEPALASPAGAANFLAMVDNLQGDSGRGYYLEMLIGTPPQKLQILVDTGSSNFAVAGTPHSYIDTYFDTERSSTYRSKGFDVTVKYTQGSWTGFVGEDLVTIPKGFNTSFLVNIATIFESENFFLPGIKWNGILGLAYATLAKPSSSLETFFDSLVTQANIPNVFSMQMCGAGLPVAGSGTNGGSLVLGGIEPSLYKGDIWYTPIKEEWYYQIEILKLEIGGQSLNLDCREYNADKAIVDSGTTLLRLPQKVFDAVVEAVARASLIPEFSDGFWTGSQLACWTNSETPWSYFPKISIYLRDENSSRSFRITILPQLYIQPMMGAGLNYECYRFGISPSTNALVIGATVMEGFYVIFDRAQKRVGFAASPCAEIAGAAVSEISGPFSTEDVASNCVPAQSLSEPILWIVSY
Method: Inhibitor IC50s at purified human autoBACE-2 are determined in a time-resolved endpoint proteolysis assay that measures hydrolysis of the QSY7-EISEVNLDAEFC-Eu-amide FRET peptide substrate (BACE-HTRF assay). BACE-mediated hydrolysis of this peptide results in an increase in relative fluorescence (RFU) at 620 nm after excitation with 320 nm light. Inhibitor compounds, prepared at 3× the desired final concentration in 1×BACE assay buffer (20 mM sodium acetate pH 5.0, 10% glycerol, 0.1% Brij-35) supplemented with 7.5% DMSO are pre-incubated with an equal volume of autoBACE-2 enzyme diluted in 1×BACE assay buffer (final enzyme concentration 1 nM) in black 384-well NUNC plates for 30 minutes at 30° C. The assay is initiated by addition of an equal volume of the QSY7-EISEVNLDAEFC-Eu-amide substrate (200 nM final concentration, Km=8 μM […] for autoBACE-2) prepared in 1×BACE assay buffer supplemented with 7.5% DMSO and incubated for 90 minutes at 30° C. DMSO is present at 5% final concentration in the assay. Following laser excitation of sample wells at 320 nm, the fluorescence signal at 620 nm is collected for 400 ms following a 50 μs delay on a RUBYstar HTRF plate reader (BMG Labtechnologies). Raw RFU data is normalized to maximum (1.0 nM BACE/DMSO) and minimum (no enzyme/DMSO) RFU values. IC50s are determined by nonlinear regression analysis (sigmoidal dose response, variable slope) of percent inhibition data with minimum and maximum values set to 0 and 100 percent respectively. Similar IC50s are obtained when using raw RFU data. The Ki values are calculated from the IC50 using the Cheng-Prusoff equation.

Chain of soluble human BACE1 catalytic domain (P56817 75-416): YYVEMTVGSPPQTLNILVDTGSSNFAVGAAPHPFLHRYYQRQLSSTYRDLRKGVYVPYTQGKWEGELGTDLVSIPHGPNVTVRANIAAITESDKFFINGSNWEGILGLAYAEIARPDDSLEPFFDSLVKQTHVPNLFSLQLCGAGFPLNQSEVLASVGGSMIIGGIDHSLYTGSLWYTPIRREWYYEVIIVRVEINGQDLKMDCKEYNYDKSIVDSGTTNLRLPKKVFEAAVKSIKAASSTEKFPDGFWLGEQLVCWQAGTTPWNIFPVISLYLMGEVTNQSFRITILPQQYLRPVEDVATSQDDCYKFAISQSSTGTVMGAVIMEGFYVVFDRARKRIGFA

Ki [1] [nM]	Ki [2] [nM]	SMILES
25	8	Cc1nc(C(=O)Nc2ccc(F)c([C@@]3(C)NC(=N)N(C)S(=O)(=O)C34CC4)c2)c(C)o1 [Example 1u, N-{4-fluoro-3-[(8R)-6-imino-5,8-dimethyl-4,4-dioxido-4-thia-5,7-diazaspiro[2.5]oct-8-yl]phenyl}-2,5-dimethyl-1,3-oxazole-4-carboxamide]
22	10	COc1cnc(C(=O)Nc2ccc(F)c([C@@]3(C)NC(=N)N(C)S(=O)(=O)C34CC4)c2)c(C)c1 [Example 1j]
4940	3250	CN1C(=N)N[C@](C)(c2cc(NC(=O)c3cn(C)nc3C(F)(F)F)ccc2F)C2(CC2)S1(=O)=O [Example 1b, N-{4-fluoro-3-[(8R)-6-imino-5,8-dimethyl-4,4-dioxido-4-thia-5,7-diazaspiro[2.5]oct-8-yl]phenyl}-1-methyl-3-(trifluoromethyl)-1H-pyrazole-4-carboxamide]
6	159	CN1C(=N)N[C@](C)(c2cc(NC(=O)c3cnc(OCC(F)(F)F)cn3)ccc2F)C2(CC2)S1(=O)=O [Example 1w, N-{4-fluoro-3-[(8R)-6-imino-5,8-dimethyl-4,4-dioxido-4-thia-5,7-diazaspiro[2.5]oct-8-yl]phenyl}-5-(2,2,2-trifluoroethoxy)pyrazine-2-carboxamide]
